Test results: US9119398B2, “Plant growth regulating compounds” (Syngenta Participations AG, priority 2012, dated 2015)
Where “and” joins values, the source holds several entries; their conditions need not be identical. Equal entries are not always repeated.

How the values were obtained:
[1] = tested on: Orobanche cumana Wallr. seeds; assay: Germination of preconditioned Orobanche cumana seeds on glass fiber filter paper in petri dishes; assay type: in vivo; conditions: mean, N = 5 × 100 seeds, seed lot IN153
Method: The effect of compounds of Formula (I) on germination of Orobanche cumana Wallr. seeds was evaluated on glass fiber filter paper (GFFP) in petri dishes. Seeds were preconditioned at moisture and suitable temperature to become responsive to the specific chemical germination stimulants.
Test compounds were dissolved in DMSO (10 000 mg l^−1) and stored at room temperature in a desiccators with desiccants. The stock solutions were dissolved with deionised water to the appropriate final test concentration.
Seeds of O. cumana race ‘F’ (IN153) were collected from a sunflower field in Manzanilla (Seville, Spain) in 2006 and stored at room temperature. To separate seeds from heavy organic debris, a modified sucrose floatation technique as described by Hartman & Tanimonure (Plant Disease (1991), 75, p. 494) was applied. Seeds were filled into a separation funnel and stirred in water. When seeds floated to the surface, the water fraction containing heavy debris was discarded. Seeds were re-suspended in 2.5M sucrose solution (specific gravity of 1.20) and heavy debris was allowed to settle down for 60 min After removing debris, seeds were disinfected in 1% sodium hypochlorite solution and 0.025% (v/v) Tween 20 for 2 min. The seeds were decanted onto two layers of cheesecloth, rinsed with sterile deionised water and re-suspended in sterile deionised water. Two ml of the seed suspension containing approximately 150-400 seeds were spread evenly on two layers of sterile glass fiber filter paper disc ([…]) in Petri dishes (Ø9 cm). After wetting the discs with 3 ml sterile deionised water, petri dishes were sealed with parafilm. Seeds were incubated for 10 days at 20° C. in the dark for seed conditioning. The upper disc with conditioned seeds was briefly dried, transferred to a petri dish lined with a dry GFFP disc, and wetted with 6 ml of the appropriate test solution. The compounds of Formula (I) were tested at concentrations of 0.001, 0.01, 0.1, or 1 mg l^−. The strigolactone analogue GR24 was included as positive control and 0.01% DMSO as negative control. All treatments were tested in five replicates. Seeds were re-incubated at 20° C. in the dark and examined for germination 10 days later. The radicles of germinated seeds were stained for 5 min with blue ink (MIGROS, Switzerland) in 5% acetic acid according to Long et al. (Seed Science Research (2008), 18, p. 125). After staining, seeds were photographed using a camera stand mounted with a digital SLR camera (Canon EOS 5D). Germination of 100 seeds per replicate was evaluated on digital images. Seeds were considered germinated when the radicle protruded from the seed coat.

[2] = tested on: Brassica oleracea cv Botrytis (temperate cauliflower) seeds; assay: Paper germination test, temperate cauliflower seeds, 10° C. in the light; assay type: in vivo; conditions: 25 μM, sets A and B separate experiments
Method: The effect of compounds of Formula (I) on the germination of Brassica oleracea cv Botrytis or common cauliflower was tested on two types of cauliflowers: temperate types and tropical types. These two types were chosen because they display different sensitivities to the light conditions and temperature during germination. Germination of a sensitive temperate type is inhibited by light at 10° C. while for the tropical types germination at 20° is stimulated by the presence of light.
The temperate seed batches tested are part of commercially produced seed batches of various varieties which are known to be sensitive to light at 10° C. These seeds were harvested and cleaned according standard commercial procedures. Ready seed batches were used (Ready indicates the processing level of these seeds: they have been cleaned and sized but received no other treatments). The tropical seed batches tested are part of seed batches produced as basic seed (for maintenance of the parental line) and were processed accordingly.
Germination was assessed using the standard paper germination test for Brassica: Fifty seeds were placed on blue germination paper, which was moistened with the appropriate solutions, in closed oblong germination boxes. Each condition was tested in duplo. Germination boxes were placed in controlled germination cabinets with the appropriate temperature and light conditions. Germination of seeds was counted at regular intervals. Seeds were considered to be germinated when the radical had protruded the testa and endosperm (radical size approximately 1 mm)
Test compounds were dissolved in DMSO at a concentration of 50 mM and stored at −20° C. The strigolactone analogue GR24 (commercially available as a racemic mixture of 2 diastereoisomers, referred to as “synthetic strigolactone GR-24” and first prepared by Johnson A. W. & all, Journal of the Chemical Society, Perkin Transactions 1, 1981, page 1734-1743) was included as positive control. Germination solutions were prepared by diluting the stock solutions with demineralized water till 25 μM. As control solutions demineralized water and a 0.05% v/v DMSO solution were used.

[3] = Table B1, concentration 0.001 mg 1^−1, DMSO control 0.4% germination
[4] = Table B1, concentration 0.1 mg 1^−1, DMSO control 0.4% germination
[5] = Table B1, concentration 1 mg 1^−1, DMSO control 0.4% germination
[6] = Table B5, concentration 0.01 mg 1^−1 (second column), DMSO control 1.4% germination
[7] = Table B5, concentration 0.01 mg 1^−1 (third column), DMSO control 1.4% germination
[8] = Table B5, concentration 1 mg 1^−1, DMSO control 1.4% germination
[9] = temperate cauliflower Spacestar seed batch 11B313 (cold-sensitive)
[10] = temperate cauliflower Spacestar seed batch 11B314 (not cold sensitive)

Structure (SMILES) | Germination (%) [1, 3] [%] | Germination (%) [1, 4] [%] | Germination (%) [1, 5] [%] | Germination (%) [1, 6] [%] | Germination (%) [1, 7] [%] | Germination (%) [1, 8] [%] | Gmax (%), total germination as percentage of sown seeds [2, 9] | Gmax (%), total germination as percentage of sown seeds [2, 10] | stimulation (%), extra germination compared to the DMSO treatment, as percentage of the germination in the DMSO treatment [2, 10] | stimulation (%), extra germination compared to the DMSO treatment, as percentage of the germination in the DMSO treatment [2, 9] [%] | other results
CC1=CC(O/C=C2\CCCCN(c3ccccc3)C2=O)OC1=O (stereo not drawn) [Ic-13, (3E)-3-[(4-methyl-5-oxo-2H-furan-2-yl)oxymethylene]-1-phenyl-azepan-2-one] |  |  |  |  |  |  |  |  |  |  | melting point: 150 to 160 °C
CC1=C[C@H](O/C=C2/C(=O)O[C@@H]3c4ccccc4C[C@H]23)OC1=O (mixture of isomers) [GR-24, reference compound] | 24.8 | 47.2 | 80.2 | 78.4 | 65 | 86.6 | 71.5% and 80.0% | 93.5% and 93.0% | 3.3% and 8.1% |  | Germination (%) ([1]; Concentration 0.01 mg l^-1, 10 days at 20° C. in the dark): 88%; Germination (%) ([1]; Concentration 0.01 mg l^-1 as printed, 10 days at 20° C. in the dark): 86.6%; Germination (%) ([1]; Concentration 1 mg l^-1, 10 days at 20° C. in the dark): 95.2%; Germination (%) ([1]; Table B2, concentration 0.01 mg 1^−1, DMSO control 2.4% germination): 12.2%; Germination (%) ([1]; Table B2, concentration 0.1 mg 1^−1, DMSO control 2.4% germination): 46.4%; Germination (%) ([1]; Table B2, concentration 1 mg 1^−1, DMSO control 2.4% germination): 85.2%; Germination (%) ([1]; Table B3, concentration 0.001 mg 1^−1, DMSO control 0% germination): 26%; Germination (%) ([1]; Table B3, concentration 0.01 mg 1^−1, DMSO control 0% germination): 51%; Germination (%) ([1]; Table B3, concentration 0.1 mg 1^−1, DMSO control 0% germination): 84.2%; Germination (%) ([1]; Table B6, concentration 0.001 mg 1^−1, DMSO control 2.4% germination): 23.0%; Germination (%) ([1]; Table B6, concentration 0.1 mg 1^−1, DMSO control 2.4% germination): 43.2%; Germination (%) ([1]; Table B6, concentration 1 mg 1^−1, DMSO control 2.4% germination): 58.1%
CC1=CC(O/C=C2/C(=O)NC3C=CCC23)OC1=O (stereo not drawn) [Ia-1, (3E)-3-[(4-methyl-5-oxo-2H-furan-2-yl)oxymethylene]-1,3a,4,6a-tetrahydrocyclopenta[b]pyrrol-2-one] | 1.4 | 24.6 | 23.2 |  |  |  | 72.0% | 96.5% | 6.6% | 20.0 | 
CC1=CC(O/C=C2\CCCCNC2=O)OC1=O (stereo not drawn) [Ia-13, (3E)-3-[(4-methyl-5-oxo-2H-furan-2-yl)oxymethylene]azepan-2-one] |  |  |  | 34.2 | 25.6 | 70 | 42.3% | 92.5% | 7.6% | −21.8 | 
